Key:
A375P cell line = A375P cell line proliferation inhibitory activity (MTT assay); format: cell-based; settings: A375P cells, 48 hours treatment
Method: A375P cell lines were purchased from ATCC and cultured in a DMEM culture medium (containing 10% FBS and 1% penicillin/streptomycin) in the presence of 5% CO2 at 37° C. The cultured A375P cell lines were taken from culture substrate with 0.05% trypsin-0.02% EDTA and plated at a density of 5×10^3 cells per well in 96-well plates.
(§1) In order to measure cell viability, MTT [3-(4,5-dimethylthiazole-2-yl)-2,5-diphenyltetrazolium bromide] activity assay method (Thiazolyl Blue Tetrazolium Bromide, Sigma Aldrich) was used. Cell lines were cultured in 96-well plates for 24 hours and treated with the compounds of Examples previously prepared. For the compound treatment, 10 mM stocks were prepared, serially diluted in DMSO and added by 0.5 μL at 8 points (final concentration of 0.5%). The cell lines in plates treated with the compounds was cultured for 48 hours, then 15 μL of dye was added to each well and cultured for 4 hours. Then, 100 μL of DMSO solvent was added to each well, and the formed solid was dissolved to measure the absorbance. The absorbance was read at a wavelength of 570 nm using EnVision 2103, and the GI 50 value was calculated using GraphPad Prism 4.0 software, and the results are shown in Table 1 below.

U937 cell line = U937 cell line proliferation inhibitory activity (MTT assay); format: cell-based; settings: Homo sapiens, U-937, U937 cells
Method: as §1
U937 cell lines were purchased from ATCC and cultured in a RPMI culture medium (containing 10% FBS, 1% penicillin/streptomycin and 25 mM HEPES) in the presence of 5% CO2 at 37° C. The cell line proliferation inhibitory activity for Examples previously prepared was measured using the same MTT activity assay method as the A375P cell line proliferation inhibitory activity assay in Experimental Example 1.

FMS = target: T1, FMS (Homo sapiens, UniProt P07333); assay: FMS inhibitory activity (Reaction Biology Kinase profiling, IC50 profiler express); format: biochemical
T1 construct: purchased Reaction Biology Corporation
Method: The inhibitory activity of FMS at a concentration of 10 μM of the compound prepared in Example 5 was measured using Kinase profiling services (IC 50 profiler express) offered by Reaction Biology Corporation.

T1 sequence (P07333 20-972): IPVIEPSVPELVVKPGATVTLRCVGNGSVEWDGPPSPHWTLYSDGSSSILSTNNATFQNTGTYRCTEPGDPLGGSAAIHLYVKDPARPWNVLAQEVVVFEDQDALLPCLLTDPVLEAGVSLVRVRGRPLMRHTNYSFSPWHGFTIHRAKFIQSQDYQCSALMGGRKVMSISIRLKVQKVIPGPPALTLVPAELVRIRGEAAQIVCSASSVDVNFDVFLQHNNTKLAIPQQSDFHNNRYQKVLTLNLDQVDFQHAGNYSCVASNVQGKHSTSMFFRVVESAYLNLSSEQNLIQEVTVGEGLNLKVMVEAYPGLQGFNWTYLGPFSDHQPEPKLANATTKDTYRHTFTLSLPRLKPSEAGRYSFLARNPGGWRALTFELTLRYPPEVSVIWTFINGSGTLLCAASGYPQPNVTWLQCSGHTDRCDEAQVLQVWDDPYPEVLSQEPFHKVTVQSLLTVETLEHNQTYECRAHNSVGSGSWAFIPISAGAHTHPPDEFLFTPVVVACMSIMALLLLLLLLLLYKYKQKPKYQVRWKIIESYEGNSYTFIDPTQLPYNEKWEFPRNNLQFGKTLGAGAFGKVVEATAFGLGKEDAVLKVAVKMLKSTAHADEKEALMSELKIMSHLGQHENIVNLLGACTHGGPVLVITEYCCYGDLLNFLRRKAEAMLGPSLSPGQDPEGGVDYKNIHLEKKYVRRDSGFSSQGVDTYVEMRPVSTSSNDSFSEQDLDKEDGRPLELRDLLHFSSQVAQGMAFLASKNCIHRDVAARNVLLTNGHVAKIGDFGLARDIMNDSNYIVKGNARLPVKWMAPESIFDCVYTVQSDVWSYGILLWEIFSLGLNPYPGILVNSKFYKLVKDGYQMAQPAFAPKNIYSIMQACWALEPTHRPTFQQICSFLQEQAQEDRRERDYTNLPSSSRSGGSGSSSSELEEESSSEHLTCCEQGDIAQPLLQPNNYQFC

Row | Structure (SMILES) | GI50 (A375P cell line) | GI50 (U937 cell line) | inhibition at 10 µM (FMS; compound concentration 10 μM, read-out: FMS activity inhibited) | IC50 (FMS; sequentially decreasing concentration, read-out: concentration that inhibits FMS activity by 50% (IC50))
1 | Cc1ccc(NC(=O)c2ccc(Cl)c(C(F)(F)F)c2)cc1NC(=O)c1cnoc1C [Example 5, N-(5-(4-chloro-3-(trifluoromethyl)benzamido)-2-methylphenyl)-5-methylisoxazole-4-carboxamide] | 10 to 30 µM | 10 to 30 µM | 98.7% | 0.00995 µM
2 | Cc1ccc(NC(=O)Nc2ccc(Cl)c(Cl)c2)cc1NC(=O)c1cnoc1C [Example 34, N-(5-(3-(3,4-dichlorophenyl)ureido)-2-methylphenyl)-5-methylisoxazole-4-carboxamide] | 10 to 30 µM | 1 to 10 µM | – | –
3 | Cc1cc(NC(=O)Nc2ccc(Cl)c(C(F)(F)F)c2)ccc1NC(=O)c1cnoc1C [Example 35, N-(4-(3-(4-chloro-3-(trifluoromethyl)phenyl)ureido)-2-methylphenyl)-5-methylisoxazole-4-carboxamide] | 10 to 30 µM | 10 to 30 µM | – | –
4 | Cc1cc(NC(=O)Nc2cccc(C(F)(F)F)c2)ccc1NC(=O)c1cnoc1C [Example 36, 5-methyl-N-(2-methyl-4-(3-(3-(trifluoromethyl)phenyl)ureido)phenyl)isoxazole-4-carboxamide] | 10 to 30 µM | 10 to 30 µM | – | –
5 | Cc1cc(NC(=O)Nc2cccc(Cl)c2)ccc1NC(=O)c1cnoc1C [Example 37, N-(4-(3-(3-chlorophenyl)ureido)-2-methylphenyl)-5-methylisoxazole-4-carboxamide] | 10 to 30 µM | 10 to 30 µM | – | –
6 | Cc1cc(NC(=O)Nc2ccccc2F)ccc1NC(=O)c1cnoc1C [Example 38, N-(4-(3-(2-fluorophenyl)ureido)-2-methylphenyl)-5-methylisoxazole-4-carboxamide] | 10 to 30 µM | 10 to 30 µM | – | –
7 | Cc1cc(NC(=O)Nc2ccc(Cl)cc2)ccc1NC(=O)c1cnoc1C [Example 39, N-(4-(3-(4-chlorophenyl)ureido)-2-methylphenyl)-5-methylisoxazole-4-carboxamide] | 10 to 30 µM | 10 to 30 µM | – | –
8 | Cc1cc(NC(=O)Nc2ccc(Cl)c(Cl)c2)ccc1NC(=O)c1cnoc1C [Example 40, N-(4-(3-(3,4-dichlorophenyl)ureido)-2-methylphenyl)-5-methylisoxazole-4-carboxamide] | 1 to 10 µM | 10 to 30 µM | – | –
9 | Cc1cc(NC(=O)Nc2cc(Cl)cc(Cl)c2)ccc1NC(=O)c1cnoc1C [Example 41, N-(4-(3-(3,5-dichlorophenyl)ureido)-2-methylphenyl)-5-methylisoxazole-4-carboxamide] | 10 to 30 µM | 10 to 30 µM | – | –
10 | CCCS(=O)(=O)Nc1ccc(C)c(NC(=O)c2cnoc2C)c1 [Example 42, 5-methyl-N-(2-methyl-5-(propylsulfonamido)phenyl)isoxazole-4-carboxamide] | 10 to 30 µM | 10 to 30 µM | – | –
11 | CCCS(=O)(=O)Nc1ccc(NC(=O)c2cnoc2C)c(C)c1 [Example 43, 5-methyl-N-(2-methyl-4-(propylsulfonamido)phenyl)isoxazole-4-carboxamide] | 10 to 30 µM | 10 to 30 µM | – | –
12 | Cc1ccc(NC(=O)c2cc(N3CCOCC3)cc(C(F)(F)F)c2)cc1NC(=O)c1cnoc1C [Example 44, 5-methyl-N-(2-methyl-5-(3-morpholino-5-(trifluoromethyl)benzamido)phenyl)isoxazole-4-carboxamide] | 10 to 30 µM | < 1 µM | – | –

Reference: patent US9789086B1, “N-(5-arylamido-2-methylphenyl)-5-methylisooxazole-4-carboxamide deravative, pharmaceutical acceptable salt thereof, method for preparation therof and FMS kinase inhibitor comprising the same as anactive ingredient” (Industry-University Cooperation Foundation Hanyang …, priority 2014, dated 2017)
